pIC50: −log10 of the molar value. Read-outs that look alike come from different tables or passages of the source.
Key:
[1] = biological target: T1, HERG (Homo sapiens, UniProt Q12809); assay: HERG current in Xenopus oocytes injected with HERG cRNA, two-microelectrode voltage clamp; conditions: for effect on current magnitude or voltage-dependence of channel activation: 1 mM within 30 min of application
Method: (§1) The characteristics of the expressed channel were studied in oocytes 2-6 days after cRNA injection using standard two-microelectrode voltage clamp techniques. HERG current was activated in response to test potentials >−50 mV. […] Deactivation of current (tail current) was assessed after return of the membrane to the holding potential of −70 mV. […] The voltage-dependence of channel activation was assessed by plotting the relative amplitude of tail currents as a function of test potential (FIG. 1D).
(§2) Xenopus frogs were anesthetized by immersion in 0.2% tricaine for 15-30 min. Ovarian lobes were digested with 2 mg/ml Type 1A collagenase (Sigma) in Ca^2+-free ND96 solution for 1.5 hours to remove follicle cells. […] Barth's solution contained (in mM): 88 NaCl, 1 KCl, 0.4 CaCl2, 0.33 Ca(NO3)2, 1 MgSO4, 2.4 NaHCO3, 10 HEPES; pH 7.4.
(§3) Unless indicated, oocytes were bathed in ND96 solution. This solution contained (in mM): 96 NaCl, 2 KCl, 1 MgCl2, 1.8 CaCl2, 5 HEPES; pH 7.6. In some experiments, KCl was varied by equimolar substitution with NaCl. Currents were recorded at room temperature (21-23° C.) using standard two-microelectrode voltage clamp techniques. Glass microelectrodes were filled with 3 M KCl and their tips broken to obtain tip resistances of 1-3 MΩ for the voltage-recording electrode and 0.6-1 MΩ for the current-passing electrode. Oocytes were voltage-clamped with a Dagan TEV-200 amplifier. Voltage commands were generated using pClamp software (ver. 6, Axon Instruments), a 486DX2 personal computer and a TL-1 D/A interface (Axon Instruments). Current signals were digitally sampled at a rate equal to 2-4 times the low-pass cut-off frequency (−3 db) of a 4-pole Bessel filter. Unless indicated, currents were corrected for leak and capacitance using standard, on-line P/3 leak subtraction. The oocyte membrane potential was held at −70 mV between test pulses, applied at a rate of 1-3 pulses/min. Data analyses, including exponential fitting of current traces, were performed using pCLAMP. […] Data are expressed as the mean±SEM (n=number of oocytes).

[2] = tested on: IKr of cardiac myocytes; conditions: cited from earlier work
[3] = biological target: T1, HERG
Method: as §1, §2, §3

[4] = biological target: T2, IKr (mouse AT-1 cells) (Mus musculus, UniProt O35219); conditions: cited from earlier work
T2 sequence (O35219 1-1162): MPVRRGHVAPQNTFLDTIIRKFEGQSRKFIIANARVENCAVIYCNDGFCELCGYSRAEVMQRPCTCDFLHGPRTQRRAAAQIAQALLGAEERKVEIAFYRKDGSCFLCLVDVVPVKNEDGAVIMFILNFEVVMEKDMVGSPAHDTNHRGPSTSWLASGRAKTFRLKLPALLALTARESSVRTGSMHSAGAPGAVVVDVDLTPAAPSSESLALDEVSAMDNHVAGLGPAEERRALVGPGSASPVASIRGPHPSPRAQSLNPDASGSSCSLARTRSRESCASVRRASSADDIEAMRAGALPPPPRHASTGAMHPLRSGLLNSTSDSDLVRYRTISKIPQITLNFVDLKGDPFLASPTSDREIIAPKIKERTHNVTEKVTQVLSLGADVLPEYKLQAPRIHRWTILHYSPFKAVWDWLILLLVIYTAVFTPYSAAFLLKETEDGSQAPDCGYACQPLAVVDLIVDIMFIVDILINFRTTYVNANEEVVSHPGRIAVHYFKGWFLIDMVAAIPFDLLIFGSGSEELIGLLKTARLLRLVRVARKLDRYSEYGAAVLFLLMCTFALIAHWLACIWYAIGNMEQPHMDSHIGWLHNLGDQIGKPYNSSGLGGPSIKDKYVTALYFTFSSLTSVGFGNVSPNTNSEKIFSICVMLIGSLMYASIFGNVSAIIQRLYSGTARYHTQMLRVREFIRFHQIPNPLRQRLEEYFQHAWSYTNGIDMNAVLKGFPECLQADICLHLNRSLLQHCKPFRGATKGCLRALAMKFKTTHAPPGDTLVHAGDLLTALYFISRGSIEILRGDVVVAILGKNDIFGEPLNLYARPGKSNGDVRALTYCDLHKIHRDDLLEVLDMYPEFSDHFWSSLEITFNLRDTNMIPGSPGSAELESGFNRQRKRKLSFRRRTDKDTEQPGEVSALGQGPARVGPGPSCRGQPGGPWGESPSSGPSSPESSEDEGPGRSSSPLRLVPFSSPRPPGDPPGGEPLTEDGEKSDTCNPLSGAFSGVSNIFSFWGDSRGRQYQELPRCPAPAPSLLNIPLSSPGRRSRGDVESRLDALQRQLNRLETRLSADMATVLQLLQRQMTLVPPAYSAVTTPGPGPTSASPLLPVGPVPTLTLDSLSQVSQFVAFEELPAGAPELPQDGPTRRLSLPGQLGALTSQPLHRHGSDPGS

[5] = biological target: T3, IKr (guinea pig heart) (Cavia porcellus, UniProt O08703); conditions: read-out: IC50 (blockers, methanesulfonanilides); cited from earlier work
T3 construct: host or cells: guinea pig cardiac myocytes (endogenous current)
T3 sequence (O08703 1-1294): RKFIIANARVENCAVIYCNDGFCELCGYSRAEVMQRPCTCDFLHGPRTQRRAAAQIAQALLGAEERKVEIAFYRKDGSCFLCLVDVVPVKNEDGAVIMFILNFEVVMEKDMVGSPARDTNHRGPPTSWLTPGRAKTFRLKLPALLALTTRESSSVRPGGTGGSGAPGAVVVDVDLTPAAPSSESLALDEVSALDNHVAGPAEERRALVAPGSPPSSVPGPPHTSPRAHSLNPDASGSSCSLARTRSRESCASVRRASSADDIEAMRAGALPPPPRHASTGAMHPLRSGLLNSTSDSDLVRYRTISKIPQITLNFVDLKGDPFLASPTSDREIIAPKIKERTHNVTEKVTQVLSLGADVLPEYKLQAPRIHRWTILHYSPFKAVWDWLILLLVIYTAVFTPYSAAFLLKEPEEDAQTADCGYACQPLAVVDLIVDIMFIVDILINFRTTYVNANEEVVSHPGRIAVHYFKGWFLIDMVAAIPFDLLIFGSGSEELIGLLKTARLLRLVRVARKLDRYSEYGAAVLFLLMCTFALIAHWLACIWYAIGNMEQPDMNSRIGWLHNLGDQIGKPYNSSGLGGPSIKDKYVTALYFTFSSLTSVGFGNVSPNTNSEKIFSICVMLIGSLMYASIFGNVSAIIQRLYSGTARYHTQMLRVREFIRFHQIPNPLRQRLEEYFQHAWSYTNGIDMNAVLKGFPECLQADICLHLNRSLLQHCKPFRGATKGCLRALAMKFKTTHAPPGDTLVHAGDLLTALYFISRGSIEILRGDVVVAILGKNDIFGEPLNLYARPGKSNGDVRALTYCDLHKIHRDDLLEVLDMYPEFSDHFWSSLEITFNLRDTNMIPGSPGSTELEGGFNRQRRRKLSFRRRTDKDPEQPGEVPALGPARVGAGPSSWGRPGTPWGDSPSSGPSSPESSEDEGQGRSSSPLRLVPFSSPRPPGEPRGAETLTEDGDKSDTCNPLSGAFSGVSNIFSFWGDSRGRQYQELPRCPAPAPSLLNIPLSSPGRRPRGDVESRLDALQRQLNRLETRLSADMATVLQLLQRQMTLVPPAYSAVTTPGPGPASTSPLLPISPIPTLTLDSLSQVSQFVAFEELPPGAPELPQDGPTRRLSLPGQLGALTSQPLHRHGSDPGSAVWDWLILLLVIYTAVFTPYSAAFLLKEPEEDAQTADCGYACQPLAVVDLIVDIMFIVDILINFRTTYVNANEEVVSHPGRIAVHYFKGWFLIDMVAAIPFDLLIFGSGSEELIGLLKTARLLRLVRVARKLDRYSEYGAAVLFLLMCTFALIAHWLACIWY

[6] = biological target: T4, rcKATP-1 (Rattus norvegicus, UniProt P48548); conditions: expressed in HEK293 cells; cited from earlier work
T4 sequence (P48548 1-419): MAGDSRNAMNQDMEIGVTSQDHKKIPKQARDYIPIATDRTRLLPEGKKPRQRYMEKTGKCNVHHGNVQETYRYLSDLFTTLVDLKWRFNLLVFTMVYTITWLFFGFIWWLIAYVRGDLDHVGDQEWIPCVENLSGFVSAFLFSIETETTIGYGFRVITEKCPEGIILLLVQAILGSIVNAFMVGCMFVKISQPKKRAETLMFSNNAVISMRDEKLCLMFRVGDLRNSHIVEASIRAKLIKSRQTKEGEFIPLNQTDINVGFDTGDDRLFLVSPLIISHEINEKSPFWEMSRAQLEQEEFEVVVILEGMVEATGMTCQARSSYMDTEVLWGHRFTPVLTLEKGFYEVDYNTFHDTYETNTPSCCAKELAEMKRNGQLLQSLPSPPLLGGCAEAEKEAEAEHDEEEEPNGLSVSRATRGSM

T1 sequence (Q12809 whole entry): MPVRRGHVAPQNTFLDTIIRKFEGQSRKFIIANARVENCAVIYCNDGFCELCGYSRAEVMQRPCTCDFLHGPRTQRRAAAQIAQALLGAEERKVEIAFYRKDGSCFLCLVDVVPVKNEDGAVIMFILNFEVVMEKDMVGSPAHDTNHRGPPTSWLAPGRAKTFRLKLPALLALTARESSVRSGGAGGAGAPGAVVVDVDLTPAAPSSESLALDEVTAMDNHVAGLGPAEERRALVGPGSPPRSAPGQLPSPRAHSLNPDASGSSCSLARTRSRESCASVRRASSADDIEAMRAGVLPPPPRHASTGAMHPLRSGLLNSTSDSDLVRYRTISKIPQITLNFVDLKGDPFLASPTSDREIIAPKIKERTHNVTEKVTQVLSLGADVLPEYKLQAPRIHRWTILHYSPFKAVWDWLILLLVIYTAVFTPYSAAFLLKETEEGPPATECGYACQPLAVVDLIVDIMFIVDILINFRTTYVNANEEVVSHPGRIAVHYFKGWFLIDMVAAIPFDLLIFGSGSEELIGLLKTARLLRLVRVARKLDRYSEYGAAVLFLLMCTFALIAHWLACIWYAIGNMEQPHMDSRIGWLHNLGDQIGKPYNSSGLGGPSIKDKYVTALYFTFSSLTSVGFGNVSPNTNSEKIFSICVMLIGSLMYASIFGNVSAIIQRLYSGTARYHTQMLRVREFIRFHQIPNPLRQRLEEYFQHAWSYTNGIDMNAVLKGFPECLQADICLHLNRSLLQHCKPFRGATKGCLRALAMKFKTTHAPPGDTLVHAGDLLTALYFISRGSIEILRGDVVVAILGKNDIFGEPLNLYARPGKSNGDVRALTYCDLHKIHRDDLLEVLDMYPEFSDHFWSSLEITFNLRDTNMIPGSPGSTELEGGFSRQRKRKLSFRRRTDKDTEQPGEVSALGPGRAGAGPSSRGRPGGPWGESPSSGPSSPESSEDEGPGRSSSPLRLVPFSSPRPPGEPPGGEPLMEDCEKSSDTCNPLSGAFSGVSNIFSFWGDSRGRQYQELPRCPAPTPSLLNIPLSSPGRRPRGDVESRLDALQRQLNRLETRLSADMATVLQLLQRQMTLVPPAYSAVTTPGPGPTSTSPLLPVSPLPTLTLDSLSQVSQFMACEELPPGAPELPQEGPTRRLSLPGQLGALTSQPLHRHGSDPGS

Nc1ncnc2c1nc(Br)n2[C@@H]1O[C@@H]2COP(=O)(O)O[C@H]2[C@H]1O [8-Br-cAMP]
activation of HERG [1]: not activated | effect on current magnitude or voltage-dependence of channel activation [1]: Neither compound had a significant effect

Nc1nc2c(nc(Br)n2[C@@H]2O[C@@H]3COP(=O)(O)O[C@H]3[C@H]2O)c(=O)[nH]1 [8-Br-cGMP]
effect on current magnitude or voltage-dependence of channel activation [1]: Neither compound had a significant effect

[Co+2] [Co^2+, cobalt]
block of HERG current ([1]; 2 mM Co^2+, n=2): 52% | block of IKr ([2]; 2 mM cobalt): blocked

[K+] [K^+]
increase of HERG current ([1]; [K^+]e 5 mM versus 2 mM): 40%

[La+3] [La^3+, lanthanum]
Blockers La^3+, Co^2+ [3]: + | half-point of activation (isochronal activation curve) [3]: +23 mV | block of IKr ([2]; 10-100 μM lanthanum): blocked | Blockers La^3+, Co^2+ [4]: +

CS(=O)(=O)Nc1ccc2c(c1)[C@H](O)CC1(CCN([C@@H]3CCc4cc(C#N)ccc4C3)CC1)O2 [MK-499]
pIC50 [5]: 7.36

COc1ccc(Cl)cc1C(=O)NCCc1ccc(S(=O)(=O)NC(=O)NC2CCCCC2)cc1 [glibenclamide]
block of the channel [6]: not blocked

CC(C)NCC(O)c1ccc(O)c(O)c1 (stereo not shown) [isoproterenol]
increase of IKr ([2]; cardiac myocytes): does not increase
